Measured values published in patent US9951039B2, “Pyrimidines for treatment of bacterial infections” (The Hong Kong Polytechnic University, priority 2016, dated 2018).
In brackets after ≈: the same amount, converted by molar mass. Like-named read-outs stand apart in the source and are kept apart here.

Tests used:
[1] = system: S. aureus ATCC 43300 (methicillin resistant); experiment: MIC against clinically isolated strain 5; assay type: cell-based; conditions: Staphylococcus aureus, ATCC43300
Description: (§1) Procedure of Antimicrobial susceptibility test: The MIC value of compounds was measured in the antimicrobial susceptibility test using the broth microdilution procedure in accordance with the CLSI guidelines.^21 Cation-adjusted Mueller Hinton broth (CA-MHB) was used for all the S. aureus strains in the assay. Cells in exponential phase of growth were diluted to approximately 5×10^5 cfu/mL. Stock solutions of each compound were freshly dissolved in dimethyl sulfoxide (DMSO). Then, serial dilutions of each compound in CA-MHB medium were added into 96-well microplate. The final percentage of DMSO in the assay was 1%. Control experiments were performed with 1% DMSO instead of the compound solution. After being incubated at 37° C. for 18 h, OD600 value of cells was measured on a microplate reader and the percentage of bacterial cell inhibition with respect to controls was calculated. The MIC value was defined as the lowest compound concentration at which the growth of bacteria was inhibited by ≥90%. Three independent assays were performed for each compound.
(§2) Results: Three compounds, namely 14av_amine16, 14dv_amine16 and 14dv_amine06, were selected to be tested against nine in-house clinically isolated bacterial strains including S. aureus ATCC29247, which is an ampicillin resistant strain, S. aureus ATCC BAA-41, ATCC BAA-1717, ATCC BAA-1720, ATCC 43300 which are methicillin resistant strains and four USA300 strains, (#417, #757, #1799 and #2690), which are the predominant strain type of community-associated MRSA strains in the United States.

B. subtilis 168 [2] = experiment: Bacterial morphology of B. subtilis 168 (phase-contrast microscopy); assay type: cell-based; conditions: sub-lethal concentration, 4 h
Description: Procedure: The B. subtilis 168 cells were grown in LB medium. The cultures at an A600 of 0.01 from an overnight culture were inoculated in the same medium containing different concentrations of the test compounds and grown at 37° C. for 4 h. The cells for morphology studies were harvested and resuspended in 100 μL of PBS buffer containing 0.25% agarose. 10 μL of the suspension mixture were then placed on a microscopic slide pretreated with 0.1% (w/v) poly-L-lysine and the morphology of the bacterial cells was observed under a phase-contrast optical microscope at 40× magnification. The images were captured using an Olympus Bio Imaging Navigator FSX 100 microscope.

MRSA ATCC 43300 = experiment: Antimicrobial efficacy in G. mellonella model of infection; assay type: in vivo, Galleria mellonella
Description: (§3) Procedure: Compound 14av_amine16 was tested in a Galleria mellonella model, which are an easy and inexpensive in vivo model with no ethical constraints for investigating antibacterial activity of a compound.^22 The G. mellonella model of S. aureus infection was used as previously described.^24 Briefly, 1 mL aliquots of overnight cultures of S. aureus 43300 were pelleted by centrifugation and washed with sterile PBS before being resuspended in 100 μL of PBS. G. mellonella larvae (N=10) that weighed 200-300 mg were then inoculated with 10 μL of S. aureus (2.5×10^6 CFU) into the last left proleg. Larvae were then treated with compounds at 1 h before bacterial inoculation. Treatments were performed in the same manner as infection, except that compounds were injected into the next left proleg moving toward the head of the larvae. […] Data was analyzed for statistical significance using a log rank and χ square test with 1 degree of freedom. Various concentrations of compound 14av_amine16 dissolved in 50% PEG in saline (0 mg/Kg, 50 mg/Kg and 100 mg/Kg) were injected into the hemocoel of last-instar G. mellonella larvae and survival was scored over time.
The efficacy of compound 14av_amine16 against G. mellonella larvae infected with MRSA ATCC 43300 was investigated. Inoculation of lethal dose of 2.5×10^6 CFU/larva of MRSA ATCC 43300 led to a significant death rate. […]

E. coli strain ATCC25922 = experiment: MIC, broth microdilution antimicrobial susceptibility test (CLSI); assay type: cell-based; conditions: Escherichia coli, ATCC25922; E. coli ATCC 25922; growth inhibited by ≥90%, 18 h; read-out: MIC^c: Minimum inhibitory concentration against E. coli
Source text: (§4) This example illustrates the evaluation of 2,4,6-trisubstituted pyrimidines 14 for their antimicrobial activities against the Gram positive S. aureus strain ATCC29213 and the Gram negative E. coli strain ATCC25922 by measuring their MIC, which is the lowest concentration of an antimicrobial agent that prevents visible growth of a microorganism in a broth dilution susceptibility test according to the standard method approved by the Clinical and Laboratory Standards Institute (CLSI) guidelines.^21
as §1

[3] = system: S. aureus strain ATCC29213; experiment: as above; assay type: cell-based; conditions: for MIC: Staphylococcus aureus
Source text: as §4, §1

G. mellonella larvae = experiment: Toxicity in G. mellonella larvae; assay type: in vivo, Galleria mellonella; conditions: 0, 50 and 100 mg/Kg in 50% PEG in saline, no MRSA inoculation, 48-hours period
Description: as §3
To examine the feasibility of using G. mellonella for compound 14av_amine16 toxicity study, the ability of compound 14av_amine16 to kill G. mellonella larvae was examined.

B. subtilis 168 [4] = experiment: MIC against B. subtilis 168; assay type: cell-based; conditions: Bacillus subtilis
[5] = system: S. aureus ATCC BAA-1717 (methicillin resistant); experiment: MIC against clinically isolated strain 2; assay type: cell-based; conditions: Staphylococcus aureus, ATCCBAA1717
Description: as §1, §2

[6] = system: S. aureus ATCC BAA-1720 (methicillin resistant); experiment: MIC against clinically isolated strain 3; assay type: cell-based; conditions: Staphylococcus aureus, ATCCBAA1720
Description: as §1, §2

`CCC(CC)c1cc(CCN2CCCN(Cc3ccc(C(F)(F)F)cc3)CC2)nc(-c2ccncc2)n1` [Compound 14av_amine16, 1-(2-(6-(pentan-3-yl)-2-(pyridin-4-yl)pyrimidin-4-yl)ethyl)-4-(4-(trifluoromethyl)benzyl)-1,4-diazepane] was tested, and the MIC [1] was 12 µM (≈ 6.14 µg/mL), the average cell length (B. subtilis 168 [2]) was > 20 μm and the “survival time of infected larvae” value (MRSA ATCC 43300; 50 mg/Kg, lethal dose 2.5×10^6 CFU/larva MRSA ATCC 43300) was 36 h. The “survival rate of infected larvae over the infection period” value (MRSA ATCC 43300; 100 mg/Kg, lethal dose MRSA ATCC 43300, 48 h) was 20%, the MIC (E. coli strain ATCC25922) was > 125 µM and the “MIC^c/MIC^b: Selectivity index” value ([3]; E. coli ATCC 25922 MIC over S. aureus 29213 MIC) was >15. The MIC ([3]; ATCC29213, S. aureus 29213, growth inhibited by ≥90%, 18 h, read-out: MIC^b: Minimum inhibitory concentration against S. aureus) was 8 µM (≈ 4.09 µg/mL), the MIC ([3]; S. aureus ATCC29213, read-out: MIC against S. aureus) was 5 to 8 µM (≈ 2.56 to 4.09 µg/mL) and the “ability to kill G. mellonella larvae (toxicity)” value (G. mellonella larvae) was “did not kill G. mellonella larvae”. The MIC (B. subtilis 168 [4]) was 12 µM (≈ 6.14 µg/mL), the MIC [5] was 8 µM (≈ 4.09 µg/mL) and the MIC [6] was 12 µM (≈ 6.14 µg/mL).
